Assay [1] deals with P-chk1 (Ser 345)/chk1 in ARN8 cells. As to the kind of experiment: P-chk1/chk1 ratio by western blotting, ARN8. Type of assay: cell-based, human. The settings on record: first blot (taken as ARN8). From the text:
(§1) (Ser 345) and chk1 were detected. Ponceau S staining was used to monitor loading. […]

Assay [2] deals with P-chk1 (Ser 345)/chk1 in HNDF cells. The experiment in a line: P-chk1/chk1 ratio by western blotting, HNDF. Type of assay: cell-based, human. The settings on record: second blot (taken as HNDF). The method, then: (Sigma, #N9162) for a further 2 h. […]
as §1

For a further assay, the system named is lipid kinases. The experiment in a line: ADP-Glo kinase assays, panel of 16 lipid kinases (Supplementary Table 3). It counts as biochemical. The text has this:
Supplementary Table 3. In vitro inhibition (% remaining activity) of lipid […]
kinases using ADP-Glo™ kinase assays (Promega) according to manufacturer ’s instructions (International Centre for Kinase Profiling, Dundee, UK).
(1 picture or pasted object on this page, not shown here)

For the next assay, the system named is total RNA in ARN8 cells. As to the kind of experiment: Total RNA quantification. It counts as cell-based, human. The method, then:
Cells were fixed in 4 % paraformaldehyde made in PBS followed by 10 min at 37 °C, permeabilization in 0.15 % Triton X-100 for 1-2 min at 37 °C, and staining with antibodies against nucleolin and p53. Images were taken using Olympus IX-71 microscope controlled by Delta Vision SoftWorx. Image stacks were deconvolved, quick-projected and saved as tiff images to be processed using Adobe PhotoShop. Antibodies to specific antigens are listed in Supplementary Table 8. b) ARN8 […]
was extracted and quantified. […]

A further assay has as its target CDK1/CycA2 (Homo sapiens, UniProt P06493). As to the kind of experiment: biochemical. Also noted: radiometric 33PanQinase protein kinase activity assay, CDK/cyclin panel, per cent remaining activity. The settings on record: read-out: HZ00 10 µM Average (% remaining activity). The text has this: (§2) Supplementary Table 1. In vitro inhibition (% remaining activity) of cyclin-dependent
(§3) ProQinase GmbH (Freiburg, Germany) using a radiometric protein kinase assay
(§4) (33PanQinase® Activity Assay).
(§5) (1 picture or pasted object on this page, not shown here) 32 Supplementary Table 1. In vitro inhibition (% remaining activity) of cyclin-dependent kinases (CDKs).

Another assay has as its target CDK1/CycE1 (Homo sapiens, UniProt P06493). The experiment in a line: biochemical. Details: radiometric 33PanQinase protein kinase activity assay, CDK/cyclin panel, per cent remaining activity. As to conditions: read-out: HZ00 10 µM Average (% remaining activity).
Description: as §2, §3, §4, §5

For the next assay, the target named is CDK2/CycE1 (Homo sapiens, UniProt P24941). The experiment in a line: biochemical. Details: radiometric 33PanQinase protein kinase activity assay, CDK/cyclin panel, per cent remaining activity. As to conditions: read-out: HZ00 10 µM Average (% remaining activity).
Description: as §2, §3, §4, §5

A further assay has as its target CDK3/CycE1 (Homo sapiens, UniProt Q00526). As to the kind of experiment: biochemical. The settings on record: read-out: HZ00 10 µM Average (% remaining activity). Also noted: radiometric 33PanQinase protein kinase activity assay, CDK/cyclin panel, per cent remaining activity.
Description: as §2, §3, §4, §5

The target in the next assay is CDK4/CycD1 (Homo sapiens, UniProt P11802). The experiment in a line: biochemical. Also noted: radiometric 33PanQinase protein kinase activity assay, CDK/cyclin panel, per cent remaining activity. The settings on record: read-out: HZ00 10 µM Average (% remaining activity).
Description: as §2, §3, §4, §5

The target of a further assay is CDK7/CycH/MAT1 (Homo sapiens, UniProt P50613). As to the kind of experiment: biochemical. As to conditions: read-out: HZ00 10 µM Average (% remaining activity). Details: radiometric 33PanQinase protein kinase activity assay, CDK/cyclin panel, per cent remaining activity.
Description: as §2, §3, §4, §5

Another assay concerns the target T1, PCTAIRE1/CycY (Homo sapiens, UniProt Q00536).
T1 construct: gene CDK16
As to the kind of experiment: biochemical. The settings on record: read-out: HZ00 10 µM Average (% remaining activity). Details: radiometric 33PanQinase protein kinase activity assay, CDK/cyclin panel, per cent remaining activity.
Description: as §2, §3, §4, §5

A further assay relates to ARN8 cells. As to the kind of experiment: Giemsa staining of ARN8 cultures (uridine, orotic acid, dihydroorotic acid supplementation). Type of assay: cell-based, human. As to conditions: 72 h, 2.5 or 5 μM uridine, serum replacement medium. The method, then:
Additionally, ARN8 cells were treated for 16 h and p53-dependent transcription was measured by CPRG assay. Values correspond to the average of three technical repeats ± SD. c Simplified description of the pyrimidine nucleotide de novo (blue) and salvage (black) pathways. d ARN8 cells were seeded in FBS supplemented DMEM with a change to serum replacement medium 24 h post seeding. […] Values correspond to the average of three technical repeats ± SD. f ARN8 cells were seeded in FBS supplemented DMEM with a change to serum replacement medium 24 h post seeding.

The next assay has as its system ARN8 xenograft. As to the kind of experiment: ARN8 subcutaneous xenograft. It counts as in vivo. As to conditions: ARN8 xenograft. The procedure:
All animal xenograft experiments were approved by the Norwegian Animal Research Authority and conducted according to The European Convention for the Protection of Vertebrates Used for Scientific Purposes. […] The health status and weight of the mice were monitored daily and they were randomized in a non-blinded manner into 4 groups when tumor volumes reached 30–40 mm^3. […] Tumor volumes were measured every second day by a digital caliper using the following ellipsoid formula: Volume = π (length × width × height)/6.
To determine the efficacy of (R)-HZ05 in combination with nutlin-3a, 4 groups of NSG mice (n = 8 per group) were subcutaneously injected in the flank region with a single 100 μL injection of 2 × 10^6 ARN8 cells in a solution of PBS:Matrigel (volume ratio 3:1). Treatment was initiated when tumors reached ~50 mm^3. The maximum tolerated dose for this combination of drugs was previously determined for the strain we used. The endpoint of the experiment was determined by the tumor size ([…]) weight loss, and general condition of the mice according to The Norwegian Animal Research Authority.

A further assay has as its target recombinant human DHODH (Homo sapiens, UniProt Q02127). The experiment in a line: Kinetic DHODH enzyme assay (3,4-dimethoxy-5-methyl-p-benzoquinone, DCIP). It counts as biochemical. Also noted: made in house. The method, then:
In Fig. 5a enzyme assays were optimized and performed with 6 nM recombinant human DHODH prepared as described. The reaction mixture for these kinetic assays consisted of 1 mM DL-dihydroorotic acid, 100 µM 3,4-dimethoxy-5-methyl-p-benzoquinone (#D9150, Sigma-Aldrich), and 100 µM DCIP in enzyme buffer. A stock solution of 20 mM DCIP was prepared in enzyme buffer and filtered through filter paper (20–25 μm pore size) just before use. Loss in absorbance by DCIP was measured at 595 nm at RT in a stepped time course (8 × 2 min, 8 × 3 min, 6 × 5 min). […] Therefore, for each concentration of inhibitor tested, a value for DHODH’s Vmax was estimated by linear regression within this time frame.

recombinant human DHODH, sequence (Q02127 29-395 limits assumed): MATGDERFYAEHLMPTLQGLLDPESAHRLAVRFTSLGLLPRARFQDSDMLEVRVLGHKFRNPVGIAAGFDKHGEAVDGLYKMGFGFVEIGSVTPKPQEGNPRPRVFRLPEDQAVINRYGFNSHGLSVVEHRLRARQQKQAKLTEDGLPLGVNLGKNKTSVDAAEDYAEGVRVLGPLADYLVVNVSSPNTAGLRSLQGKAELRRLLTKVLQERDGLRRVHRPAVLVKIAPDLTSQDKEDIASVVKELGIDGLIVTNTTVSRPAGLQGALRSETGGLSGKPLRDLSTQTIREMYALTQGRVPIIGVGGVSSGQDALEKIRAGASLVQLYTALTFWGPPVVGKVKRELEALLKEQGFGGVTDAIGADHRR
CDK7/CycH/MAT1, sequence (P50613 whole entry): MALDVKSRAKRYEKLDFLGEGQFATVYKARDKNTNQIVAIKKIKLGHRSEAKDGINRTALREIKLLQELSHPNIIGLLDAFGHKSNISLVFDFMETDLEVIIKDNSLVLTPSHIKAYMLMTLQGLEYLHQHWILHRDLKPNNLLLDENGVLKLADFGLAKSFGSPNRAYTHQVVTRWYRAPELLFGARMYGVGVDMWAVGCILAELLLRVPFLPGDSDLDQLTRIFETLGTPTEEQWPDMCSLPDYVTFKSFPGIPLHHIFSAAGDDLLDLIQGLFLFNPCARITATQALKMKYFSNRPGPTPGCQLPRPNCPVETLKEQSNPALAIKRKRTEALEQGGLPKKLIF
CDK7/CycH/MAT1, sequence (P51946 whole entry partner): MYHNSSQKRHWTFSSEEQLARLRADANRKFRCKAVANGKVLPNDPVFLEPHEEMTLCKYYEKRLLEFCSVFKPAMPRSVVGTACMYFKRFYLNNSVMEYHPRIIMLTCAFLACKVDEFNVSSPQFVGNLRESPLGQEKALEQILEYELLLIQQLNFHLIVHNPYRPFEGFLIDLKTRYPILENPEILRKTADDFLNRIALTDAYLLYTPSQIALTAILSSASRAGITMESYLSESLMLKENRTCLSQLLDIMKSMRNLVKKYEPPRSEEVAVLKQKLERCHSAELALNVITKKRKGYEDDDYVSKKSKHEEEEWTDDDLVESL
CDK7/CycH/MAT1, sequence (P51948 whole entry partner): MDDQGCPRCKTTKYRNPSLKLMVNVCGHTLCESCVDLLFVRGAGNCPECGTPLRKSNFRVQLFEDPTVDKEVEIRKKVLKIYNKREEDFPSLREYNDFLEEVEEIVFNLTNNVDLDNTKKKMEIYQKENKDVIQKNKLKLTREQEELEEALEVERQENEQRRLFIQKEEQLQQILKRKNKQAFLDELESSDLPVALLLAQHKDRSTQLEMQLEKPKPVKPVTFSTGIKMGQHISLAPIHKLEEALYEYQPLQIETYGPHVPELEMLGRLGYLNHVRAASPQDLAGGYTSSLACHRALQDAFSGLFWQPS
CDK3/CycE1, sequence (Q00526 whole entry): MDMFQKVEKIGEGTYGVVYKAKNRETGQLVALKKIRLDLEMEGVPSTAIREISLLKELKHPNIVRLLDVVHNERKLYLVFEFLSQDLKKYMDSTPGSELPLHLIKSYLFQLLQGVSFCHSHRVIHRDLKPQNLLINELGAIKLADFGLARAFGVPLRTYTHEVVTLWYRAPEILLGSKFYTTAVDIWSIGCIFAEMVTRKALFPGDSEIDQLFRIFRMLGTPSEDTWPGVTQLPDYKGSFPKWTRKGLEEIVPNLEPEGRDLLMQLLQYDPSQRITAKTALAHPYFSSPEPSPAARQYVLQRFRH
CDK3/CycE1, sequence (P24864 whole entry partner): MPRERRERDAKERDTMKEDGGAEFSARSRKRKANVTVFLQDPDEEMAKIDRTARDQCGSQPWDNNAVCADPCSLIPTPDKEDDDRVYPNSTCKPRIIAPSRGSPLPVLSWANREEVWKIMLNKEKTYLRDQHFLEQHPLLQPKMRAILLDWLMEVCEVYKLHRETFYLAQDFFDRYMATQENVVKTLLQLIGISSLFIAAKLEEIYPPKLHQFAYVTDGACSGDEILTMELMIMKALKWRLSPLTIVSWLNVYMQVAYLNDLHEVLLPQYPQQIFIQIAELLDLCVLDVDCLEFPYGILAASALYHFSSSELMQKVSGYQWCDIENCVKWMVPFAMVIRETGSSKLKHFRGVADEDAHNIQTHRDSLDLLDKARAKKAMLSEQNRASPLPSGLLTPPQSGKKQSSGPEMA
CDK4/CycD1, sequence (P11802 whole entry): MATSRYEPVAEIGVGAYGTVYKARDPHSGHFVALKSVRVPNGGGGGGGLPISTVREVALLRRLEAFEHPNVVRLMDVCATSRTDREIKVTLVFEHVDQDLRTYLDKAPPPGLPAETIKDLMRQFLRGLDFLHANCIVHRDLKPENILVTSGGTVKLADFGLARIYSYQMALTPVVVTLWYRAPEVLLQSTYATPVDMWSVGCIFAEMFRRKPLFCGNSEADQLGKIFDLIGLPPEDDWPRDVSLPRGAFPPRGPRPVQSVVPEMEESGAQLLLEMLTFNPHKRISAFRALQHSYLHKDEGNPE
CDK4/CycD1, sequence (P24385 whole entry partner): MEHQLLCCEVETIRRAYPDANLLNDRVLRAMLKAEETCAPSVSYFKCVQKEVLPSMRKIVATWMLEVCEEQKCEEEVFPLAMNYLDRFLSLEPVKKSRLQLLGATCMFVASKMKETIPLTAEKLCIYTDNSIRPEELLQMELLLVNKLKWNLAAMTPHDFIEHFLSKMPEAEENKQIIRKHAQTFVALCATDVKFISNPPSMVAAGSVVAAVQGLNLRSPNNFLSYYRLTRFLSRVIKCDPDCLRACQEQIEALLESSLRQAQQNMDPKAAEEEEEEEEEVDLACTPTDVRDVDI
CDK1/CycE1, sequence (P06493 whole entry): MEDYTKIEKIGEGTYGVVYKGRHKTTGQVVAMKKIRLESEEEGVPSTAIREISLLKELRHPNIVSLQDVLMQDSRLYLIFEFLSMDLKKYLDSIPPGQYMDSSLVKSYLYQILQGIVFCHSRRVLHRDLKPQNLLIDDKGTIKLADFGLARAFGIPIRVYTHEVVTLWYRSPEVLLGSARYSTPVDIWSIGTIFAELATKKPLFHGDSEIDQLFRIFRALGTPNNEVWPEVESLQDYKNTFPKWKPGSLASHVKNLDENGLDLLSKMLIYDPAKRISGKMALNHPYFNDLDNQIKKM
CDK1/CycE1, sequence (P24864 whole entry partner): as the sequence (P24864 whole entry partner) above
CDK1/CycA2, sequence (P06493 whole entry): as the sequence (P06493 whole entry) above
CDK1/CycA2, sequence (P20248 whole entry partner): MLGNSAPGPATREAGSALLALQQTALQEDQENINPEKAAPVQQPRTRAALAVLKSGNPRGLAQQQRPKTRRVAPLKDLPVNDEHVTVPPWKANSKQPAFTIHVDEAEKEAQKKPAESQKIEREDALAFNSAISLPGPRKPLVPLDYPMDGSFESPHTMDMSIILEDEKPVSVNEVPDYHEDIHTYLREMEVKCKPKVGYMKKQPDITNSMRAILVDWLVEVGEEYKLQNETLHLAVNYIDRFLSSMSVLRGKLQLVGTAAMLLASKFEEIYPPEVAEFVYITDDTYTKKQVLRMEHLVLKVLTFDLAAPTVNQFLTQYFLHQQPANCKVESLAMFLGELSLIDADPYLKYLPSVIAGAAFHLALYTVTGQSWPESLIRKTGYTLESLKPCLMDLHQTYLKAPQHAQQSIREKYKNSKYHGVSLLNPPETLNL
T1 sequence (Q00536 whole entry): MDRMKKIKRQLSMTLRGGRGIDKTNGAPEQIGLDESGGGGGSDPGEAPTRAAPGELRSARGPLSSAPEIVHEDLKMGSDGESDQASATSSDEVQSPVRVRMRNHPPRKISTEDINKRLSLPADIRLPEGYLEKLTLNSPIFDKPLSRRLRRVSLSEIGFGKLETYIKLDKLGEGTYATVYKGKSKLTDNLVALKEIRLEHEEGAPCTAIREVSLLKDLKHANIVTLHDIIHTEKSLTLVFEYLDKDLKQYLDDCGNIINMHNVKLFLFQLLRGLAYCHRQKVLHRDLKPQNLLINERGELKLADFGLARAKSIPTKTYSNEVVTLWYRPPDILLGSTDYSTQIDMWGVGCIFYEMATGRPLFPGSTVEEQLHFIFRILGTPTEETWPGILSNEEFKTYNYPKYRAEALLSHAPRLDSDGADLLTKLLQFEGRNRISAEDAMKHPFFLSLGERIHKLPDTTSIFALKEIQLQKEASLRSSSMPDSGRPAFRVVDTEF
T1 sequence (Q8ND76 whole entry partner): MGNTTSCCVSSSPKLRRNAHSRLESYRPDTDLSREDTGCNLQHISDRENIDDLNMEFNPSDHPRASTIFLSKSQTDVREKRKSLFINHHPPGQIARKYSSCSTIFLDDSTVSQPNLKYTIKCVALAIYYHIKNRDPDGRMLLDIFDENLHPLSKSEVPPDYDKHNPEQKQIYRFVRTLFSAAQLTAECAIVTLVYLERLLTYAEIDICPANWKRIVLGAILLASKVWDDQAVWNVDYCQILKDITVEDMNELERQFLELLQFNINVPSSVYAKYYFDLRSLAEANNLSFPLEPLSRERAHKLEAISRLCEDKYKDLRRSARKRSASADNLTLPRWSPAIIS

As for `O=C(NC1CCCc2c1cnn2-c1ccccc1F)c1ccccn1` (centres unmarked) [HZ00], the P-chk1/chk1 in assay [1] (HZ00 10 µM, 24 h) is given as 1.02; in assay [1] (HZ00 10 µM, 48 h) it was 1.28; in assay [1] (HZ00 10 µM, 72 h), 0.78; in assay [1] (HZ00 20 µM, 24 h), 0.94; in assay [1] (HZ00 20 µM, 48 h), 1.41; in assay [1] (HZ00 20 µM, 72 h) it was 0.87. The P-chk1/chk1 is given as 0.98 in [2] (HZ00 10 µM, 24 h); 0.89 in assay [2] (HZ00 10 µM, 48 h); 1.13 in assay [2] (HZ00 10 µM, 72 h); 1.08 in [2] (HZ00 20 µM, 24 h); 1.05 in assay [2] (HZ00 20 µM, 48 h); 1.07 in assay [2] (HZ00 20 µM, 72 h). For the same molecule, the “inhibition of lipid kinases” value in the assay with lipid kinases is listed as “did not detect inhibition”. Further, the “total RNA levels” value with total RNA in ARN8 cells is “drop in total RNA levels”. Besides, the remaining activity at 10 µM at CDK1/CycA2 was 89.1%; at CDK1/CycE1 it was 101%; at CDK2/CycE1 it was 102%; on CDK3/CycE1 it was 96.6%; on CDK4/CycD1, 104%; on CDK7/CycH/MAT1, 96.2%. For the same molecule, the remaining activity at 10 µM on PCTAIRE1/CycY came to 103%.

Turning to `O=C(NC1CCCc2c1cnn2-c1ccccc1F)c1onc2c1CCCC2` (centres unmarked) [HZ05], in the assay with ARN8 cells, the “tumor cell growth at physiological uridine levels” value is on record as “able to ablate tumor cell growth”. Further, the “xenograft tumor growth, combination with nutlin-3a” value in the assay with ARN8 xenograft ((R)-HZ05 75 mg/kg q.d. s.c. + nutlin-3a 50 mg/kg b.i.d. orally, 10 days) is “statistically significant reduction in xenograft growth”. For the same molecule, the “xenograft tumor growth, single agent” value in the assay on ARN8 xenograft ((R)-HZ05 75 mg/kg q.d. s.c. or nutlin-3a 50 mg/kg b.i.d. orally) is “ineffective”. The half-inhibitory concentration (IC50) at recombinant human DHODH (Fig. 5a, average of three independent repeats ± SD) was 32 ± 2 nM. Besides, at recombinant human DHODH (authors' response in peer review file), the “concentration inhibiting DHODH enzymatic activity” value was “below 40 nM”.
